According to patent publication US10370356B2, “Pyridinone dicarboxamide for use as bromodomain inhibitors” (GlaxoSmithKline Intellectual Property (No. 2) Limited, priority 2015, dated 2019):
Where a name gives a salt, the structure may show the parent alone. Read-outs that look alike come from different tables or passages of the source.

Legend:
BRD4 BD2 = target: T1, BRD4 BD2 (Homo sapiens, UniProt O60885, Y97A); assay: BRD4 BD2 mutant TR-FRET competition assay; type: binding
T1 construct: BRD4 (1-477) (Y97A) and (Y390A); made in house; host or cells: E. coli (pET15b vector)

[1] = tested on: BET family (BRD2, BRD3, BRD4 and BRDT) tandem bromodomain proteins; assay: Fluorescence Polarisation binding of Reference Compound X to single and double mutant tandem BET proteins; design: species or system Human
Protocol: The competition of the compounds of formula (I) with Reference Compound X for binding to the BET family (BRD2, BRD3, BRD4 and BRDT) was assessed using protein truncates spanning both bromodomain 1 (BD1) and bromodomain 2 (BD2). In order to monitor differential binding to either BD1 or BD2, single residue mutations of key tyrosines to alanine were made in the acetyl lysine binding pockets. To validate this approach, a double residue mutant tandem domain protein was produced for each of the BET family members. Utilising a Fluorescence Polarisation approach, binding affinities for each of the single and double mutants for Reference Compound X were determined. […] The affinities of the single mutated bromdomain tandem proteins for Reference Compound X were equi-potent with the corresponding non-mutated BET protein. […] In the TR-FRET competition assay, Reference Compound X is used at a concentration that is equivalent to the Kd for the non-mutated bromodomain, which ensures that no binding at the mutated bromodomain is detected. […]

[2] = read-out: pIC50 in the BRD4 BD2 assay (converted)

Row | IC50 (BRD4 BD2; [2]) | Compound | also measured
1 | ≤ 100 nM | CNC(=O)c1cc(C(=O)N[C@H]2[C@@H]3CN(CCNC(=O)OC(C)(C)C)C[C@@H]32)cn(Cc2cccc3[nH]ccc23)c1=O [Example 85, tert-Butyl (2-((1R,5S,6s)-6-(1-((1H-indol-4-yl)methyl)-5-(methylcarbamoyl)-6-oxo-1,6-dihydropyridine-3-carboxamido)-3-azabicyclo[3.1.0]hexan-3-yl)ethyl)carbamate] | 
2 | ≤ 100 nM | CNC(=O)c1cc(C(=O)N[C@H]2[C@@H]3CN(CCN)C[C@@H]32)cn(Cc2cccc3[nH]ccc23)c1=O [Example 86, 1-((1H-Indol-4-yl)methyl)-N^5-((1R,5S,6s)-3-(2-aminoethyl)-3-azabicyclo[3.1.0]hexan-6-yl)-N^3-methyl-2-oxo-1,2-dihydropyridine-3,5-dicarboxamide] | 
3 | ≤ 100 nM | CNC(=O)c1cc(C(=O)N[C@H]2[C@@H]3CN(CCNC(C)=O)C[C@@H]32)cn(Cc2cccc3[nH]ccc23)c1=O [Example 87, 1-((1H-Indol-4-yl)methyl)-N^5-((1R,5S,6s)-3-(2-acetamidoethyl)-3-azabicyclo[3.1.0]hexan-6-yl)-N^3-methyl-2-oxo-1,2-dihydrouridine-3,5-dicarboxamide] | 
4 | ≤ 100 nM | CNC(=O)c1cc(C(=O)NCCC[C@H]2OC[C@H](N)CO2)cn(Cc2ccccc2)c1=O [Example 88, N^5-(3-((2r,5r)-5-Amino-1,3-dioxan-2-yl)propyl)-1-benzyl-N^3-methyl-2-oxo-1,2-dihydropyridine-3,5-dicarboxamide] | IC50 (BRD4 BD2; average of N recorded values, read-out: BRD4 BD2 IC50 (average value) (converted)): 50.1 nM
5 | 100 to 1000 nM | CNC(=O)c1cc(C(=O)NCCOC2CCNCC2)cn(Cc2ccccc2)c1=O [Example 89, 1-benzyl-N^3-methyl-2-oxo-N^5-(2-(piperidin-4-yloxy)ethyl)-1,2-dihydropyridine-3,5-dicarboxamide hydrochloride] | 
6 | 100 to 1000 nM | CNC(=O)c1cc(C(=O)NC2CN(S(C)(=O)=O)C2)cn(Cc2ccccc2)c1=O [Example 90, 1-benzyl-N^3-methyl-N^5-(1-(methylsulfonyl)azetidin-3-yl)-2-oxo-1,2-dihydropyridine-3,5-dicarboxamide] | 
7 | 100 to 1000 nM | CNC(=O)c1cc(C(=O)NC2COC2)cn(Cc2ccccc2)c1=O [Example 91, 1-benzyl-N^3-methyl-N^5-(oxetan-3-yl)-2-oxo-1,2-dihydropyridine-3,5-dicarboxamide] | 
8 |  | COc1ccc2c(c1)C(c1ccc(Cl)cc1)=N[C@@H](CC(=O)NCCCCCNC(=O)CCCCCC1(C)/C(=C/C=C/C=C/C3=[N+](CCCCS(=O)(=O)O)c4ccc(S(=O)(=O)O)cc4C3(C)C)N(CCCCS(=O)(=O)[O-])c3ccc(S(=O)(=O)O)cc31)c1nnc(C)n1-2 (stereo partly shown) [Reference Compound X] | reduction in Kd ([1]; double mutant tandem proteins versus non mutated, wild type tandem BET proteins): > 1000 fold; reduction of the Kd of the interaction between the mutated bromodomain and Reference Compound X ([1]; single mutations of Tyrosine to Alanine): > 1000 fold
